We go through 1 compound from paper PMC5218480 (PLoS ONE, 2017).

The subject of the assay is MV-4-11 cells. Put plainly: Gene expression microarray analysis (Affymetrix PrimeView) and GSEA. The format is cell-based, human. Also on record: RFU PODN (11730768_x_at) / Fold change /veh PODN (11730768_x_at) / RFU LINC00158 (11744669_a_at) / Fold change /veh LINC00158 (11744669_a_at) / RFU DUSP10 (11751237_a_at) / Fold change /veh DUSP10 (11751237_a_at) / RFU ID3 (11757404_x_at) / Fold change /veh ID3 (11757404_x_at) / RFU PLEKHG5 (11737974_s_at) / Fold change /veh PLEKHG5 (11737974_s_at) / RFU LRRC4B (11730491_at) / Fold change /veh LRRC4B (11730491_at) / RFU GIMAP4 (11747438_a_at) / Fold change /veh GIMAP4 (11747438_a_at) / RFU KRT8 (11758183_x_at) / Fold change /veh KRT8 (11758183_x_at) / RFU CNN1 (11734310_a_at) / Fold change /veh CNN1 (11734310_a_at) / RFU VPS37D (11726825_at) / Fold change /veh VPS37D (11726825_at) / RFU C10orf10 (11716522_x_at) / Fold change /veh C10orf10 (11716522_x_at) / RFU KIR2DL2 /// KIR2DL4 /// KIR2DL5A /// KIR2DL5B /// KIR2DS1 /// KIR2DS2 /// KIR2DS3 /// KIR2DS4 /// KIR3DL3 /// KIR3DL3 /// KIR3DS1 (11738374_at) / Fold change /veh KIR2DL2 /// KIR2DL4 /// KIR2DL5A /// KIR2DL5B /// KIR2DS1 /// KIR2DS2 /// KIR2DS3 /// KIR2DS4 /// KIR3DL3 /// KIR3DL3 /// KIR3DS1 (11738374_at) / RFU C1QL1 (11718748_at) / Fold change /veh C1QL1 (11718748_at) / RFU TMPRSS4 (11747572_a_at) / Fold change /veh TMPRSS4 (11747572_a_at) / RFU HAMP (11756126_x_at) / Fold change /veh HAMP (11756126_x_at) / RFU RNFT2 (11725882_a_at) / Fold change /veh RNFT2 (11725882_a_at) / RFU NR4A2 (11747474_a_at) / Fold change /veh NR4A2 (11747474_a_at) / RFU ABCC12 (11746883_a_at) / Fold change /veh ABCC12 (11746883_a_at) / RFU TMEM136 (11760407_x_at) / Fold change /veh TMEM136 (11760407_x_at) / RFU CLDN22 /// WWC2 (11732394_at) / Fold change /veh CLDN22 /// WWC2 (11732394_at) / RFU HLA-DPB1 (11760878_x_at) / Fold change /veh HLA-DPB1 (11760878_x_at) / RFU SPINT1 (11716480_a_at) / Fold change /veh SPINT1 (11716480_a_at) / RFU GAP43 (11754022_s_at) / Fold change /veh GAP43 (11754022_s_at) / RFU A4GNT (11735810_at) / Fold change /veh A4GNT (11735810_at) / RFU PRB3 (11715151_x_at) / Fold change /veh PRB3 (11715151_x_at) / RFU TUBB4B (11761932_at) / Fold change /veh TUBB4B (11761932_at) / RFU CAPN14 (11732068_a_at) / Fold change /veh CAPN14 (11732068_a_at) / RFU TMCC2 (11721928_a_at) / Fold change /veh TMCC2 (11721928_a_at) / RFU IRGQ (11745062_a_at) / Fold change /veh IRGQ (11745062_a_at) / RFU FAM174B (11720279_a_at) / Fold change /veh FAM174B (11720279_a_at) / RFU TMPRSS4 (11748680_a_at) / Fold change /veh TMPRSS4 (11748680_a_at) / RFU FAM212B (11763350_a_at) / Fold change /veh FAM212B (11763350_a_at) / RFU PLEKHG5 (11743358_a_at) / Fold change /veh PLEKHG5 (11743358_a_at) / RFU ZSCAN30 (11745921_a_at) / Fold change /veh ZSCAN30 (11745921_a_at) / RFU CMKLR1 (11741424_a_at) / Fold change /veh CMKLR1 (11741424_a_at) / RFU LOC101060620 /// MAPK8IP1 (11723275_at) / Fold change /veh LOC101060620 /// MAPK8IP1 (11723275_at) / RFU SPTSSB (11747773_x_at) / Fold change /veh SPTSSB (11747773_x_at) / RFU PRSS12 (11739890_at) / Fold change /veh PRSS12 (11739890_at) / RFU BIN1 (11741810_x_at) / Fold change /veh BIN1 (11741810_x_at) / RFU WNT11 (11732464_a_at) / Fold change /veh WNT11 (11732464_a_at) / RFU C10orf10 (11716521_a_at) / Fold change /veh C10orf10 (11716521_a_at) / RFU C5orf56 (11738089_at) / Fold change /veh C5orf56 (11738089_at) / RFU CYB561 (11721691_x_at) / Fold change /veh CYB561 (11721691_x_at) / RFU ANKRD19P (11752326_a_at) / Fold change /veh ANKRD19P (11752326_a_at) / RFU OR2T12 /// OR2T33 /// OR2T8 (11738714_s_at) / Fold change /veh OR2T12 /// OR2T33 /// OR2T8 (11738714_s_at) / RFU VCAN (11748164_a_at) / Fold change /veh VCAN (11748164_a_at) / RFU JSRP1 (11732532_at) / Fold change /veh JSRP1 (11732532_at) / RFU KRTAP10-11 (11738290_x_at) / Fold change /veh KRTAP10-11 (11738290_x_at) / RFU MYO3A (11730013_a_at) / Fold change /veh MYO3A (11730013_a_at) / RFU EBF3 (11725865_a_at) / Fold change /veh EBF3 (11725865_a_at) / RFU CAMK2N1 (11719241_x_at) / Fold change /veh CAMK2N1 (11719241_x_at) / RFU C5orf56 (11738088_a_at) / Fold change /veh C5orf56 (11738088_a_at) / RFU OLFML3 (11715873_a_at) / Fold change /veh OLFML3 (11715873_a_at) / RFU LOC100653217 /// NTM (11731650_a_at) / Fold change /veh LOC100653217 /// NTM (11731650_a_at) / RFU MAPK11 (11762145_a_at) / Fold change /veh MAPK11 (11762145_a_at) / RFU FIZ1 (11724087_x_at) / Fold change /veh FIZ1 (11724087_x_at) / RFU OASL (11726364_x_at) / Fold change /veh OASL (11726364_x_at) / RFU SOX15 (11748057_x_at) / Fold change /veh SOX15 (11748057_x_at) / RFU CD79A (11719716_a_at) / Fold change /veh CD79A (11719716_a_at) / RFU HIST1H1D (11736915_at) / Fold change /veh HIST1H1D (11736915_at) / RFU CASKIN2 (11723855_a_at) / Fold change /veh CASKIN2 (11723855_a_at) / RFU LOC730098 (11760151_x_at) / Fold change /veh LOC730098 (11760151_x_at) / RFU OR4N2 (11742367_at) / Fold change /veh OR4N2 (11742367_at) / RFU PRRT2 (11749266_a_at) / Fold change /veh PRRT2 (11749266_a_at) / RFU SNX32 (11753110_a_at) / Fold change /veh SNX32 (11753110_a_at) / RFU CDHR5 (11726645_a_at) / Fold change /veh CDHR5 (11726645_a_at) / RFU RCAN1 (11760418_a_at) / Fold change /veh RCAN1 (11760418_a_at) / RFU FAM167A (11723789_a_at) / Fold change /veh FAM167A (11723789_a_at) / RFU FAM26E (11764081_at) / Fold change /veh FAM26E (11764081_at) / RFU ISYNA1 (11749810_s_at) / Fold change /veh ISYNA1 (11749810_s_at) / RFU ACY1 (11761880_at) / Fold change /veh ACY1 (11761880_at) / RFU 11764098_at / Fold change /veh 11764098_at / RFU SAMD14 (11745864_x_at) / Fold change /veh SAMD14 (11745864_x_at) / RFU NPB (11741838_a_at) / Fold change /veh NPB (11741838_a_at) / RFU TMPRSS6 (11731388_a_at) / Fold change /veh TMPRSS6 (11731388_a_at) / RFU KRTAP10-2 (11738614_at) / Fold change /veh KRTAP10-2 (11738614_at) / RFU ARHGAP8 /// PRR5-ARHGAP8 (11727945_x_at) / Fold change /veh ARHGAP8 /// PRR5-ARHGAP8 (11727945_x_at) / RFU KRTAP5-7 /// NADSYN1 (11734609_at) / Fold change /veh KRTAP5-7 /// NADSYN1 (11734609_at) / RFU RASL12 (11751679_a_at) / Fold change /veh RASL12 (11751679_a_at) / RFU CDKN2B (11736163_a_at) / Fold change /veh CDKN2B (11736163_a_at) / RFU PRF1 (11729649_at) / Fold change /veh PRF1 (11729649_at) / RFU, ZNF638 /// ZNF638-IT1 / Fold change vs veh, ZNF638 /// ZNF638-IT1 / RFU, PANK3 / Fold change vs veh, PANK3 / RFU, SH3YL1 / Fold change vs veh, SH3YL1 / RFU, ZEB2 / Fold change vs veh, ZEB2 / RFU, NRIP1 / Fold change vs veh, NRIP1 / RFU, PTTG1IP / Fold change vs veh, PTTG1IP / RFU, CAPN2 / Fold change vs veh, CAPN2 / RFU, MED14 / Fold change vs veh, MED14 / RFU, SNORA58 / Fold change vs veh, SNORA58 / RFU, C1orf63 / Fold change vs veh, C1orf63 / RFU, LRRFIP1 / Fold change vs veh, LRRFIP1 / RFU, NDUFAF7 / Fold change vs veh, NDUFAF7 / RFU, SLC12A2 / Fold change vs veh, SLC12A2 / RFU, IBTK / Fold change vs veh, IBTK / RFU, ESF1 / Fold change vs veh, ESF1 / Fold change vs veh, TMEM50B / RFU, TAOK1 / Fold change vs veh, TAOK1 / RFU, ACBD3 / Fold change vs veh, ACBD3 / RFU, TMA16 / Fold change vs veh, TMA16 / RFU, RWDD3 / Fold change vs veh, RWDD3 / RFU, BCAT1 / Fold change vs veh, BCAT1 / RFU, EDEM3 / Fold change vs veh, EDEM3 / RFU, TMEM33 / Fold change vs veh, TMEM33 / RFU, WDR75 / Fold change vs veh, WDR75 / RFU, AHCTF1 / Fold change vs veh, AHCTF1 / RFU, TFRC / Fold change vs veh, TFRC / RFU, ZDHHC17 / Fold change vs veh, ZDHHC17 / RFU, NOM1 / Fold change vs veh, NOM1 / RFU, ARL8B / Fold change vs veh, ARL8B / RFU, ZBTB11 / Fold change vs veh, ZBTB11 / RFU, TAMM41 / Fold change vs veh, TAMM41 / RFU, KIAA1704 /// LOC100996395 / Fold change vs veh, KIAA1704 /// LOC100996395 / RFU, ING1 / Fold change vs veh, ING1 / RFU, TRMT61B / Fold change vs veh, TRMT61B / RFU, FUBP3 / Fold change vs veh, FUBP3 / RFU, TP53 / Fold change vs veh, TP53 / RFU, TNKS2 / Fold change vs veh, TNKS2 / RFU, ZFP14 / Fold change vs veh, ZFP14 / RFU, ACTR2 / Fold change vs veh, ACTR2 / RFU, PPP3R1 / Fold change vs veh, PPP3R1 / RFU, PIK3R1 / Fold change vs veh, PIK3R1 / RFU, HNRNPA1 / Fold change vs veh, HNRNPA1 / RFU, RNF170 / Fold change vs veh, RNF170 / RFU, ZNF28 / Fold change vs veh, ZNF28 / RFU, RNGTT / Fold change vs veh, RNGTT / RFU, OGT / Fold change vs veh, OGT / RFU, BRD1 / Fold change vs veh, BRD1 / RFU, MARS / Fold change vs veh, MARS / RFU, ZNF655 / Fold change vs veh, ZNF655 / RFU, FAHD1 / Fold change vs veh, FAHD1 / RFU, BDP1 / Fold change vs veh, BDP1 / RFU, LRRCC1 / Fold change vs veh, LRRCC1 / RFU, ARID1A / Fold change vs veh, ARID1A / RFU, ZNF146 / Fold change vs veh, ZNF146 / RFU, ZNF330 / Fold change vs veh, ZNF330 / RFU, GPN3 / Fold change vs veh, GPN3 / RFU, C9orf123 / Fold change vs veh, C9orf123 / RFU, N4BP2L2 / Fold change vs veh, N4BP2L2 / RFU, ARFIP1 / Fold change vs veh, ARFIP1 / RFU, FAM179B / Fold change vs veh, FAM179B / RFU, BCL10 / Fold change vs veh, BCL10 / RFU, UHRF1BP1L / Fold change vs veh, UHRF1BP1L / RFU, BET1 / Fold change vs veh, BET1 / RFU, CNOT2 / Fold change vs veh, CNOT2 / RFU, ZNF268 / Fold change vs veh, ZNF268 / Fold change vs veh, ZNF507 / RFU, DGCR2 / Fold change vs veh, DGCR2 / RFU, WDSUB1 / Fold change vs veh, WDSUB1 / Fold change vs veh, HSP90B1 /// MIR3652 / RFU, ADSS / Fold change vs veh, ADSS / RFU, GK / Fold change vs veh, GK / RFU, ZNF148 / Fold change vs veh, ZNF148 / RFU, TAF9 / Fold change vs veh, TAF9 / RFU, SLC1A5 / Fold change vs veh, SLC1A5 / RFU, SLMO2 / Fold change vs veh, SLMO2 / RFU, ABCC4 / Fold change vs veh, ABCC4 / RFU, LOC101060439 /// RAP1B / Fold change vs veh, LOC101060439 /// RAP1B / RFU, RFX7 / Fold change vs veh, RFX7 / RFU, GTPBP10 / Fold change vs veh, GTPBP10 / RFU, CNEP1R1 / Fold change vs veh, CNEP1R1 / RFU, BIVM-ERCC5 /// ERCC5 / Fold change vs veh, BIVM-ERCC5 /// ERCC5 / RFU, ILF3 / Fold change vs veh, ILF3 / RFU 11762660_at / Fold change /veh 11762660_at / RFU VCAN (11757783_s_at) / Fold change /veh VCAN (11757783_s_at) / RFU DDX43 (11728927_at) / Fold change /veh DDX43 (11728927_at) / RFU KRT8 (11758188_x_at) / Fold change /veh KRT8 (11758188_x_at) / RFU NKD1 (11759106_at) / Fold change /veh NKD1 (11759106_at) / RFU SRD5A1 (11742802_a_at) / Fold change /veh SRD5A1 (11742802_a_at) / RFU TPSAB1 /// TPSB2 (11721975_s_at) / Fold change /veh TPSAB1 /// TPSB2 (11721975_s_at) / RFU GSTM3 (11746129_a_at) / Fold change /veh GSTM3 (11746129_a_at) / RFU IL23R (11737362_x_at) / Fold change /veh IL23R (11737362_x_at) / RFU TMEM51 (11727254_a_at) / Fold change /veh TMEM51 (11727254_a_at) / RFU PIWIL2 (11732686_x_at) / Fold change /veh PIWIL2 (11732686_x_at) / RFU ORM1 (11744905_x_at) / Fold change /veh ORM1 (11744905_x_at) / RFU CCDC152 (11743942_at) / Fold change /veh CCDC152 (11743942_at) / RFU ECM1 (11717891_a_at) / Fold change /veh ECM1 (11717891_a_at) / RFU IL23R (11748794_a_at) / Fold change /veh IL23R (11748794_a_at) / RFU TNFAIP8L3 (11732012_x_at) / Fold change /veh TNFAIP8L3 (11732012_x_at) / RFU MBOAT4 (11741988_at) / Fold change /veh MBOAT4 (11741988_at) / RFU 11764193_at / Fold change /veh 11764193_at / RFU TMEM53 (11763286_at) / Fold change /veh TMEM53 (11763286_at) / RFU MAGEB2 (11727129_at) / Fold change /veh MAGEB2 (11727129_at) / RFU TMEM200A (11744735_a_at) / Fold change /veh TMEM200A (11744735_a_at) / RFU CCDC152 (11751479_a_at) / Fold change /veh CCDC152 (11751479_a_at) / RFU FAM211A (11726209_a_at) / Fold change /veh FAM211A (11726209_a_at) / RFU RGS16 (11746705_a_at) / Fold change /veh RGS16 (11746705_a_at) / RFU VCAN (11755009_s_at) / Fold change /veh VCAN (11755009_s_at) / RFU RHOB (11743442_s_at) / Fold change /veh RHOB (11743442_s_at) / RFU RGS16 (11720943_a_at) / Fold change /veh RGS16 (11720943_a_at) / RFU RGS16 (11720944_at) / Fold change /veh RGS16 (11720944_at) / RFU, VPS4B / Fold change vs veh, VPS4B / RFU, CREB1 / Fold change vs veh, CREB1 / RFU, DNAJC13 / Fold change vs veh, DNAJC13 / RFU, GNAQ / Fold change vs veh, GNAQ / RFU, CDK5R1 / Fold change vs veh, CDK5R1 / RFU, ZRANB3 / Fold change vs veh, ZRANB3 / RFU, CUL4A / Fold change vs veh, CUL4A / RFU, CCNY / Fold change vs veh, CCNY / RFU, UFL1 / Fold change vs veh, UFL1 / RFU, COG3 / Fold change vs veh, COG3 / RFU, DIAPH2 / Fold change vs veh, DIAPH2 / RFU, SKA2 / Fold change vs veh, SKA2 / RFU, AFF3 / Fold change vs veh, AFF3 / RFU, LMF1 / Fold change vs veh, LMF1 / RFU, IPO11 / Fold change vs veh, IPO11 / RFU, DFFB / Fold change vs veh, DFFB / RFU, FOXP1 / Fold change vs veh, FOXP1 / RFU, CARD8 / Fold change vs veh, CARD8 / RFU, STRN3 / Fold change vs veh, STRN3 / RFU, ADK / Fold change vs veh, ADK / RFU, RASSF2 / Fold change vs veh, RASSF2 / RFU, WIPF1 / Fold change vs veh, WIPF1 / RFU, LARP1B / Fold change vs veh, LARP1B / RFU, RASA1 / Fold change vs veh, RASA1 / RFU, RB1 / Fold change vs veh, RB1 / RFU, PPFIA1 / Fold change vs veh, PPFIA1 / RFU, MAT2A / Fold change vs veh, MAT2A / RFU, CCT5 / Fold change vs veh, CCT5 / RFU, WDR92 / Fold change vs veh, WDR92 / RFU, CUX1 / Fold change vs veh, CUX1 / RFU, TTC7A / Fold change vs veh, TTC7A / RFU, TMEM135 / Fold change vs veh, TMEM135 / RFU, DEPTOR / Fold change vs veh, DEPTOR / RFU, CPM / Fold change vs veh, CPM / RFU, DNAJB6 / Fold change vs veh, DNAJB6 / RFU, CACNA2D3 / Fold change vs veh, CACNA2D3 / RFU, DTX4 / Fold change vs veh, DTX4 / RFU, TFCP2 / Fold change vs veh, TFCP2 / RFU, GMCL1 /// GMCL1P1 / Fold change vs veh, GMCL1 /// GMCL1P1 / RFU, AEBP2 / Fold change vs veh, AEBP2 / RFU, SNHG1 /// SNORD22 /// SNORD25 /// SNORD26 /// SNORD27 /// SNORD28 /// SNORD29 /// SNORD31 / Fold change vs veh, SNHG1 /// SNORD22 /// SNORD25 /// SNORD26 /// SNORD27 /// SNORD28 /// SNORD29 /// SNORD31 / Fold change (Aza/veh), C12orf56 (ProbeSet 11735607_a_at) / Fold change (ACY-1035/veh), C12orf56 (ProbeSet 11735607_a_at) / Fold change (Aza/veh), FGFR1OP (ProbeSet 11751329_s_at) / Fold change (ACY-1035/veh), FGFR1OP (ProbeSet 11751329_s_at) / Fold change (Aza/veh), VPS36 (ProbeSet 11739960_a_at) / Fold change (ACY-1035/veh), VPS36 (ProbeSet 11739960_a_at) / RFU SYPL1 (11715823_x_at) / Fold change /veh SYPL1 (11715823_x_at) / RFU IGFBP7 (11715501_s_at) / Fold change /veh IGFBP7 (11715501_s_at) / RFU REEP3 (11722064_at) / Fold change /veh REEP3 (11722064_at) / RFU IGLL1 (11728026_x_at) / Fold change /veh IGLL1 (11728026_x_at): dose or concentration left out as unconfirmed. The note with it: ProbeSet 11755436_x_at; LIST B.

Take `Nc1ncn([C@@H]2O[C@H](CO)[C@@H](O)[C@H]2O)c(=O)n1` [azacitidine]: the “RFU, ARID1A” value was 63.57 RFU.
